Results published in PMC10382584, “Macrocyclization of linear molecules by deep learning to facilitate macrocyclic drug candidates discovery” (Nature Communications, 2023).

Experiments:
Assay in all cases: biochemical
Set-up in all cases: DiscoveRx KINOMEscan competition binding, percent of DMSO control signal at 100 nM
Conditions in all cases: read-out: Fig. 4a / Percent Control / Compound 1; percent of DMSO control, competition binding
DYRK1B = DYRK1B (Homo sapiens, UniProt Q9Y463)
Procedure: (§1) The kinase selectivity profile was performed by using the DiscoveRx KINOMEscan platform. […] Test compounds were prepared as 40× stocks in 100% DMSO and directly diluted into the assay. The results were defined as a percentage of signal between the negative (DMSO, 100% control) and the positive (control compound, 0% control) control, which was calculated as follows: percent control = [(test compound signal − positive control signal)/(negative control signal − positive control signal)] × 100.

LTK = LTK (Homo sapiens, UniProt P29376)
Sequence of LTK (P29376 whole entry): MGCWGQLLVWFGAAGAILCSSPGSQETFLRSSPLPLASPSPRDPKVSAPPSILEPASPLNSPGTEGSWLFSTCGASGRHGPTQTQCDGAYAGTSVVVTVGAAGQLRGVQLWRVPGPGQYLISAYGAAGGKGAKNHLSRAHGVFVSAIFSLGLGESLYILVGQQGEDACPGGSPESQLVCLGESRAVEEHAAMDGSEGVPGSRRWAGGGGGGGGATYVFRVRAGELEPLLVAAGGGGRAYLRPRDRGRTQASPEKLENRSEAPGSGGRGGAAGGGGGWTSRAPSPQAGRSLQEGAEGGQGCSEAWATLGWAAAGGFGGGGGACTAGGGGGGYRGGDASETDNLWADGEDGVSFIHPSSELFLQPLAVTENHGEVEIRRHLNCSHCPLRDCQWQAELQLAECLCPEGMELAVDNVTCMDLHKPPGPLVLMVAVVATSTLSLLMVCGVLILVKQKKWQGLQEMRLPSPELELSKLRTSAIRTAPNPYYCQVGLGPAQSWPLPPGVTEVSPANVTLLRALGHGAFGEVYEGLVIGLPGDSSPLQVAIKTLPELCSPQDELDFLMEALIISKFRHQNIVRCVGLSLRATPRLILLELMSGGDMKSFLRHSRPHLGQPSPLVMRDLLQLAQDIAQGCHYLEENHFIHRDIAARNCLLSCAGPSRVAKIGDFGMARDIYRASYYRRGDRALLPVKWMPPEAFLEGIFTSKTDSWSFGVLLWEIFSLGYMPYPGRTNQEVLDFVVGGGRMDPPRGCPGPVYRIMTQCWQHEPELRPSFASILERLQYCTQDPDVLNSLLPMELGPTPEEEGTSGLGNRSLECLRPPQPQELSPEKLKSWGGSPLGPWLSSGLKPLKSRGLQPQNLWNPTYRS
Procedure: as §1

ABL1-phosphorylated = biological target: T1, ABL1-phosphorylated (Homo sapiens, UniProt P00519)
T1 construct: phosphorylated
T1 sequence (P00519 whole entry): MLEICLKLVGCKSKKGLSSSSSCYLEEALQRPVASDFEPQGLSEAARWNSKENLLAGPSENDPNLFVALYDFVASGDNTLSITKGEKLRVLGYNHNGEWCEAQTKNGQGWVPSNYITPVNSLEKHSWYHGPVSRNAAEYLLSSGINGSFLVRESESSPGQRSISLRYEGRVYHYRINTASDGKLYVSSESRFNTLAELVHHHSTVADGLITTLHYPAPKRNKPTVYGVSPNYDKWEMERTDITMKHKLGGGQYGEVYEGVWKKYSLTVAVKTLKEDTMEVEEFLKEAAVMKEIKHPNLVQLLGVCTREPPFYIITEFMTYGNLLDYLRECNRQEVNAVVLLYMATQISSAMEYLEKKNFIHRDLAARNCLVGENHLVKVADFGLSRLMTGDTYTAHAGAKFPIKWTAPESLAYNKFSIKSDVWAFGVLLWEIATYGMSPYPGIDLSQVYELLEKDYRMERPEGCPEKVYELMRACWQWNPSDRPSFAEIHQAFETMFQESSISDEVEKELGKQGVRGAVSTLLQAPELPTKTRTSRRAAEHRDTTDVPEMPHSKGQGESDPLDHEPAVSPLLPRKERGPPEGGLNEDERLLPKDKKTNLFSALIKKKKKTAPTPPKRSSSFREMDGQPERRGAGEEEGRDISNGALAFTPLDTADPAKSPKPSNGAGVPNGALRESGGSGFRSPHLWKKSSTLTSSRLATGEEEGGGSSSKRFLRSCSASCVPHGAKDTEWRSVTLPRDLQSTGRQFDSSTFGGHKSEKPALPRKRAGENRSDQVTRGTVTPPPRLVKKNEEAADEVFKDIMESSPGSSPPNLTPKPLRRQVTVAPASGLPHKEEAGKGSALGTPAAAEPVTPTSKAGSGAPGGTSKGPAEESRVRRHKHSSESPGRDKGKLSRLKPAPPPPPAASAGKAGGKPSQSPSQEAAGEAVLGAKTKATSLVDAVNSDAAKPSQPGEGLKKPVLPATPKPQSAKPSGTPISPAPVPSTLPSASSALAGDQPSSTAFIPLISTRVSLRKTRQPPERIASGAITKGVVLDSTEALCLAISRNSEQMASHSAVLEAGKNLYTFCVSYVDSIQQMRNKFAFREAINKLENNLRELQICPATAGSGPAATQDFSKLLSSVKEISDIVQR

GRK1 = GRK1 (Homo sapiens, UniProt Q15835)
Sequence of GRK1 (Q15835 whole entry): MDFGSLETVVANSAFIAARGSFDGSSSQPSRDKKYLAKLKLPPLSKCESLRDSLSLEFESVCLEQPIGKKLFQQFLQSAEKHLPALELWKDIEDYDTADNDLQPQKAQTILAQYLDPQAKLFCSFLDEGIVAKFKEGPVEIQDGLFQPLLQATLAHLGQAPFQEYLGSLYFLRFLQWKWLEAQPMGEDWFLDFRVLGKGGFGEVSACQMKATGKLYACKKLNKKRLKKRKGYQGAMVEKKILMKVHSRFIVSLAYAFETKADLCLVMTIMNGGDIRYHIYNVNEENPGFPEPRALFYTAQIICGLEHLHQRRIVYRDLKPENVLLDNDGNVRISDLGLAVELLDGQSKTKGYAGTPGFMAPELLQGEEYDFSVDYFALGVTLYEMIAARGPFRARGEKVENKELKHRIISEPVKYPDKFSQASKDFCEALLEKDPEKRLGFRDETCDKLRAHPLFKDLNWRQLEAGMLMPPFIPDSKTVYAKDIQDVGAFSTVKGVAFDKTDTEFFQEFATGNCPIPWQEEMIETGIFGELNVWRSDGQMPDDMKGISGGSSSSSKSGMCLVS

EPHA3 = EPHA3 (Homo sapiens, UniProt P29320)
Sequence of EPHA3 (P29320 whole entry): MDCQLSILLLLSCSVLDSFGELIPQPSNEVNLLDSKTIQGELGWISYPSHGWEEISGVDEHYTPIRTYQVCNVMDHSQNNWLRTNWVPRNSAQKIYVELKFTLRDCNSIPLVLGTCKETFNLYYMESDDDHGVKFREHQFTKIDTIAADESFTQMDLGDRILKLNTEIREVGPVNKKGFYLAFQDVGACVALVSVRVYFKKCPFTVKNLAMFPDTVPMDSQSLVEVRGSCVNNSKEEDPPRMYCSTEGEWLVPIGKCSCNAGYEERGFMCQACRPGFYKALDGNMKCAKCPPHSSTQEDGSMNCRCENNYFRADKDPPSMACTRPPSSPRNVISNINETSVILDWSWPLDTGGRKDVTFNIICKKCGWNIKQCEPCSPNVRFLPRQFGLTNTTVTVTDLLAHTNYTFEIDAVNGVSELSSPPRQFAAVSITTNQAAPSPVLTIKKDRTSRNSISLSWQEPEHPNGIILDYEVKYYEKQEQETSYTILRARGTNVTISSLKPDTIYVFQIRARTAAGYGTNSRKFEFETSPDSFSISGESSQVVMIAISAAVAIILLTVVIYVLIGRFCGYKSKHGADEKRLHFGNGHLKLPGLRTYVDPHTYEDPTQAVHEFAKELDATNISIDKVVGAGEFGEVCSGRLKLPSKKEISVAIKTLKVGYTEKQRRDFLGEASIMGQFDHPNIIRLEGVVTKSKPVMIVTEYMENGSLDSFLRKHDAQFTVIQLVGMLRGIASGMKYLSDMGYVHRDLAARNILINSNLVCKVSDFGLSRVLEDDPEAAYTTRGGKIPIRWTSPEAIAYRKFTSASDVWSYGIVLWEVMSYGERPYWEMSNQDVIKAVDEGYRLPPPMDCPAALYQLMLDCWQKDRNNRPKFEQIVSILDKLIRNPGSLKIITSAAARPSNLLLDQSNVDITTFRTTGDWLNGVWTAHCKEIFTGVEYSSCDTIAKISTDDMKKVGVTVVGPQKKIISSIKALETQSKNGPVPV

Sequence of DYRK1B (Q9Y463 whole entry): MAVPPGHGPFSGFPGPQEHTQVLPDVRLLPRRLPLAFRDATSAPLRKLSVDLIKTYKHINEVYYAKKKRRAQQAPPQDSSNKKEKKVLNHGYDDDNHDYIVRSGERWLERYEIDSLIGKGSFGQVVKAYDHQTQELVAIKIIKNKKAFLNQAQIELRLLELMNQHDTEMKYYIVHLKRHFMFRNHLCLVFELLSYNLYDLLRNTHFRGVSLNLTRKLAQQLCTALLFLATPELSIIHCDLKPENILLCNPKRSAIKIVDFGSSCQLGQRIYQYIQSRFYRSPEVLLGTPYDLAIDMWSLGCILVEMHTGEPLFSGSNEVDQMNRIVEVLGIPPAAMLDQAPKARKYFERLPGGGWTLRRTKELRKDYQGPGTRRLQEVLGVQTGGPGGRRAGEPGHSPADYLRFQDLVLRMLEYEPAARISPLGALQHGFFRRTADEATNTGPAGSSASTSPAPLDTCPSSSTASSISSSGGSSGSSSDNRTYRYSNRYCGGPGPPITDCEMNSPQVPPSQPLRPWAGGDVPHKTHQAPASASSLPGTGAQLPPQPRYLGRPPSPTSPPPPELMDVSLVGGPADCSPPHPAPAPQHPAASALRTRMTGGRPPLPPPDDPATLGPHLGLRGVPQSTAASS

What does the source list for Cc1cnc2nc1Nc1cccc(c1)COCc1cc(ccc1OCCN1CCCC1)N2 [Compound 1]?
remaining binding at 0.1 µM (DYRK1B): 100%; remaining binding at 0.1 µM (LTK): 100%; remaining binding at 0.1 µM (ABL1-phosphorylated): 90%; remaining binding at 0.1 µM (GRK1): 77%; remaining binding at 0.1 µM (EPHA3): 85%
